Results: paper PMC8348110, “A Novel Peptide Derived from the Transmembrane Domain of Romo1 Is a Promising Candidate for Sepsis Treatment and Multidrug-Resistant Bacteria” (International Journal of Molecular Sciences, 2021)
Values after ≈ are worked out from the molar mass of the structure shown. Residues, ends and D or L forms follow the SMILES beside them.

How the values were obtained:
BALB/c mice = assay: In vivo toxicity, single intravenous dose; parameters: species or system mouse; details: 100 mg/kg single intravenous dose, tracked for 15 days, compared with PBS-treated mice
Method: We compared the toxicity of AMPR-22 in mammalian cells with that of AMPR-11 and AMPR-21. […] To investigate the toxicity of AMPR-22 to white blood cells, we isolated fresh peripheral blood mononuclear cells (PBMCs) from humans and mice. […] To check for in vivo toxicity before administering AMPR-22 to mice in a murine model of sepsis, we intravenously injected 100 mg/kg single dose of AMPR-22 (10-fold higher than the working dose) into BALB/c mice and tracked them for 15 days.
Figure 3 The cytotoxicity of AMPR-22. (A) The cell toxicity of the AMPR-11 analog peptides was measured using the MTT assay in HeLa and HEK293 cells. Daptomycin and magainin 2 were also tested. (B) A hemolysis assay was performed in mouse and human blood. The percentage of hemolyzed erythrocytes was measured using a spectrophotometer. Peptides were serially diluted and incubated with cells for an hour. (C) The toxicity of leukocytes was measured using a flow cytometric assay with LIVE/DEAD fixable dead cell™ stain dye and freshly isolated mouse and human PBMCs. […] Data represent the means ± SD of more than three independent experiments.

[1] = system: Pseudomonas aeruginosa ATCC 27853; assay type: cell-based
Outline: (§1)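 Mid-log bacteria at 5 × 10^5 CFU/mL in 10 mM sodium phosphate (pH 7.4) with 1% TS broth, exposed 1 h to two-fold peptide dilutions from 64 μg/mL. Samples then plated on TS agar overnight at 37 °C; MBC taken as lowest concentration yielding no colonies.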

[2] = system: Staphylococcus aureus ATCC 29213; assay type: cell-based
Outline: as §1

[3] = system: Streptococcus pneumoniae NCCP 14585; assay type: cell-based; details: NCCP 14585, 1 h
Outline: as §1

[4] = system: human embryotic kidney (HEK) 293 cells; assay type: cell-based
Method: Mammalian cell viability was measured using a 3-(4,5-dimethylthiazol-2-yl)-2,5-diphenyltetrazolium bromide (MTT) assay in HeLa and HEK 293 cells. Cells were cultured on 96-well plates and incubated separately with AMPR-11, AMPR-21, AMPR-22, magainin 2, or daptomycin. After incubation for an hour, the cells were incubated with MTT solution (2 mg/mL of MTT in PBS) for an hour, and the media were removed, and dimethyl sulfoxide was added to allow the MTT formazans to solubilize. The optical density was measured using a SpectraMax Plus 384 microplate reader (Molecular Devices, San Jose, CA, USA) at 550 nm.

[5] = system: Carbapenem-resistant P. aeruginosa (CRPA), clinical isolate; assay type: cell-based, Pseudomonas aeruginosa; details: 1 h
Outline: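 Mid-log clinical isolates diluted to 5 × 10^5 CFU/mL in 10 mM sodium phosphate (pH 7.4) with 1% TS broth, exposed 1 h to peptides two-fold diluted from 64 μg/mL, then plated on TS agar overnight at 37 °C. MBC is the lowest concentration with no colonies.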

[6] = system: Vancomycin-resistant S. aureus NCCP 15872; assay type: cell-based, Staphylococcus aureus; details: Vancomycin-resistant NCCP 15872, 1 h
Outline: as §1

[7] = system: Methicillin-resistant S. aureus (MRSA) ATCC 33591; assay type: cell-based, Staphylococcus aureus
Outline: as §1

For CC[C@H](C)[C@H](NC(=O)CNC(=O)CNC(=O)[C@@H](NC(=O)[C@H](C)NC(=O)[C@H](CCSC)NC(=O)[C@H](Cc1ccccc1)NC(=O)[C@@H](NC(=O)CNC(=O)[C@H](Cc1ccccc1)NC(=O)[C@H](CCCCN)NC(=O)CNC(=O)CNC(=O)[C@H](CCCCN)NC(=O)[C@H](CCCCN)NC(=O)[C@H](CCSC)NC(=O)[C@H](CCSC)NC(=O)[C@H](CCCCN)NC(=O)[C@@H](N)CCCCN)[C@@H](C)O)[C@@H](C)CC)C(=O)N[C@@H](CCCNC(=N)N)C(=O)O [AMPR-22] (H-KKMMKKGGKFGTFMAIGGIR-OH), the “In vivo toxicity (weight loss or death)” value (BALB/c mice) was “No significant changes”, the “MBC Value, P. aeruginosa” value ([1]; ATCC 27853, 1 h) was 2 mg/L (≈ 0.915 µM) and the “MBC Value, Pseudomonas aeruginosa” value ([1]; Table 2, ATCC 27853, modified MBC) was 2 mg/L (≈ 0.915 µM). The “MBC Value, S. aureus” value ([2]; ATCC 29213, 1 h, pH 7.4) was 2 mg/L (≈ 0.915 µM), the “MBC Value, Staphylococcus aureus” value ([2]; Table 2, ATCC 29213, modified MBC) was 2 mg/L (≈ 0.915 µM) and the “MBC Value, Streptococcus pneumoniae” value [3] was 4 mg/L (≈ 1.83 µM). The “Cytotoxicity, HEK 293 cells” value [4] was “slight cytotoxicity”, the “MBC Value, CRPA” value [5] was 4 mg/L (≈ 1.83 µM) and the “MBC Value, Carbapenem-resistant P. aeruginosa” value [5] was 4 mg/L (≈ 1.83 µM). For the same compound, the “MBC Value, Vancomycin-resistant S. aureus” value [6] was 4 mg/L (≈ 1.83 µM), the “MBC Value, MRSA” value ([7]; ATCC 33591, 1 h) was 2 mg/L (≈ 0.915 µM) and the “MBC Value, Methicillin-resistant S. aureus” value ([7]; Table 2, ATCC 33591, modified MBC) was 2 mg/L (≈ 0.915 µM).
